Test results published in US10457654B2 (GENENTECH, INC., priority 2017, dated 2019).
Structures can show the parent of a compound that is named as a salt. Where two headings read alike, the source gives them in different places.

Target: hNav1.7 (Homo sapiens (Human), UniProt Q15858)
Test: Tritiated compound binding to membranes from cells expressing hNav1.7 and the β1 subunit, competitive binding (LBA, Ex. 243A)
Settings: 100 pM [3H]compound, 18 h, room temperature
Procedure: Tritiated Compound Binding to Membranes Isolated from Cells that Heterologously Express hNav1.7 and the β1 Subunit
Preparation of membranes containing recombinantly expressed sodium channels: Frozen recombinant cell pellets were thawed on ice and diluted to 4 times the cell pellet weight with ice cold 50 mM Tris HCl, pH 7.4 buffer. The cell suspensions were homogenized on ice using a motorized glass dounce homogeniser. Homogenates were further diluted 8.4 times with ice cold 50 mM Tris HCl, pH 7.4 buffer and then centrifuged at 200×g at 4° C. for 15 min. The supernatants were collected and centrifuged at 10000×g at 4° C. for 50 min. […] The homogenized membranes were then processed through a syringe equipped with a 26 gauge needle. Protein concentrations were determined by Bradford Assay and the membranes were stored at −80° C.
Radioligand Binding Studies: Saturation experiments. A competitive NaV1.7 inhibitor having a methyl group was tritiated. Three tritiums were incorporated in place of methyl hydrogens to generate [^3H]compound. Binding of this radioligand was performed in 5 mL borosilicate glass test tubes at room temperature. […] Non-specific binding was determined in the presence of 1 μM unlabeled compound. After 18h, the reactants were filtered through GF/C glass fiber filters presoaked in 0.5% w/v polyethylene imine. […] [^3H]compound bound to filters was quantified by liquid scintillation counting.
Competitive binding experiments: Binding reactions were performed in 96-well polypropylene plates at room temperature for 18h. In 360 μL, membranes were incubated with 100 pM [^3H]compound and increasing concentrations of Test Compound. Non-specific binding was defined in the presence of 1 μM unlabeled compound. Reactions were transferred and filtered through 96-well glass fiber/C filter plates presoaked with 0.5% polyethylene imine. The filtered reactions were washed 5 times with 200 μL ice cold buffer containing 0.25% BSA. Bound radioactivity was determined by liquid scintillation counting.
Data Analysis: For saturation experiments, non-specific binding was subtracted from total binding to provide specific binding and these values were recalculated in terms of pmol ligand bound per mg protein. Saturation curves were constructed and dissociation constants were calculated using the single site ligand binding model: Beq=(Bmax*X)/(X+Kd), where Beq is the amount of ligand bound at equilibrium, Bmax is the maximum receptor density, Kd is the dissociation constant for the ligand, and X is the free ligand concentration. For competition studies percent inhibition was determined and IC50 values were calculated using a 4 parameter logistic model (% inhibition=(A+((B−A)/(1+((x/C)^D)))) using XLfit, where A and B are the maximal and minimum inhibition respectively, C is the IC50 concentration and D is the (Hill) slope.

[1] = read-out: Nav1.7 LBA (Ex. 243A) IC50
[2] = read-out: Nav1.7 (LBA) (Ex. 243A)

Sequence of hNav1.7 (Q15858 whole entry, looked up): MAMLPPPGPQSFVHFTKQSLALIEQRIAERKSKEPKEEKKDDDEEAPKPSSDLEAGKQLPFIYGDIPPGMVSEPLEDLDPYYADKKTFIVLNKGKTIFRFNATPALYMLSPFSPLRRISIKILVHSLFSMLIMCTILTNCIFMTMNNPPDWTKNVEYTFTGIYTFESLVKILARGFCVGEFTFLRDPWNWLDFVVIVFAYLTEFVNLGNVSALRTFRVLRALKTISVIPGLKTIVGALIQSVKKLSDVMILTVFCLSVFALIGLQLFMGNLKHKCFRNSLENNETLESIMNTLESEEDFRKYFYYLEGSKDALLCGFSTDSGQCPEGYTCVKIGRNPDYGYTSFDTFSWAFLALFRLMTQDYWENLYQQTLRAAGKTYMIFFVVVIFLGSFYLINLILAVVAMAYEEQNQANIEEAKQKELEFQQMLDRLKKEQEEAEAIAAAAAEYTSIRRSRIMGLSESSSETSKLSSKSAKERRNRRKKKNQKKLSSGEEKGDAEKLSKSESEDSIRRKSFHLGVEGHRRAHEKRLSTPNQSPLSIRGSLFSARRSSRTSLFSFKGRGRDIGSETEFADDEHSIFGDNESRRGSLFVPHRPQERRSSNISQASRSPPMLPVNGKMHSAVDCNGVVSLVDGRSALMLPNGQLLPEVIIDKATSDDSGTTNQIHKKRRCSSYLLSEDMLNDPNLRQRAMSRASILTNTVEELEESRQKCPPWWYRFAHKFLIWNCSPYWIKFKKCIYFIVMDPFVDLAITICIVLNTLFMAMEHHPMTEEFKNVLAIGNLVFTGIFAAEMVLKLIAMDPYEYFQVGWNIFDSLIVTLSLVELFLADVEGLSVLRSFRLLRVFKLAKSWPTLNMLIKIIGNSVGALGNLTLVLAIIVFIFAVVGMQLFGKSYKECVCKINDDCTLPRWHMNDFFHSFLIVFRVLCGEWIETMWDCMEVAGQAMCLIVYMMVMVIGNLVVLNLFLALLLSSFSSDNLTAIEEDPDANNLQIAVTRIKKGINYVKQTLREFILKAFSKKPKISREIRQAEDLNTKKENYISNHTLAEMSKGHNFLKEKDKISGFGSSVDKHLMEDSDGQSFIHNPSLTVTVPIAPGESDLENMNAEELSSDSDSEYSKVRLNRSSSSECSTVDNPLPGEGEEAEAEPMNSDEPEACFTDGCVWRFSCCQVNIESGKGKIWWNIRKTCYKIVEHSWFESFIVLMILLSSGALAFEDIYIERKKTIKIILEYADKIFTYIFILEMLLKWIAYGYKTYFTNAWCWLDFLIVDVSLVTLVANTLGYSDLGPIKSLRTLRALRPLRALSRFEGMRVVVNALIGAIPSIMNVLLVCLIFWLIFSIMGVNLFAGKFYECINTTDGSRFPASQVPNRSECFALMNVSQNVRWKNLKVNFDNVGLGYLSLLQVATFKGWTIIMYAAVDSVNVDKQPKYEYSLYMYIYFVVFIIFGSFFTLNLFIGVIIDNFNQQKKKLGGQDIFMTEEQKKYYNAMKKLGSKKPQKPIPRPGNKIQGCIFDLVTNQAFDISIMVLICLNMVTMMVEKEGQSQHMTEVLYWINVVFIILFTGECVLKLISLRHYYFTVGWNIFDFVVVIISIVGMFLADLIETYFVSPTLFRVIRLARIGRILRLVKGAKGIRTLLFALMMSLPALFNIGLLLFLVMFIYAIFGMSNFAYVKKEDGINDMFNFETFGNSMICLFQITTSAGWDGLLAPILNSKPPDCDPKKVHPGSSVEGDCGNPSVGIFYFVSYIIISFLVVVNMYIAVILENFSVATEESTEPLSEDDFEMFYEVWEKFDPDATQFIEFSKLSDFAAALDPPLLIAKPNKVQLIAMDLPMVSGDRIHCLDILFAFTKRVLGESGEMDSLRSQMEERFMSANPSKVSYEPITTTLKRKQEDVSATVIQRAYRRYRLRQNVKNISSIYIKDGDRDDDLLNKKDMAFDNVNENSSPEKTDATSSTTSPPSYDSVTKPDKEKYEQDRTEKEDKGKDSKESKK
Sequence of hNav1.7 (Q07699 whole entry partner, looked up): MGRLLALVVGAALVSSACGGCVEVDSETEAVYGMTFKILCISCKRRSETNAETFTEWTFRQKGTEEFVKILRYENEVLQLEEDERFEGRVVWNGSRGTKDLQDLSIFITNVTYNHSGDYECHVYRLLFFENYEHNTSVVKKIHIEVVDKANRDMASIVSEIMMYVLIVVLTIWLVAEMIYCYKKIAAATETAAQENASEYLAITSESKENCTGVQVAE

IC50 [1] [nM]	IC50 [2] [nM]	Compound
379		CN(C)[C@@H]1CC[C@@H](C(F)(F)F)C[C@H]1Nc1cc(F)c(S(=O)(=O)Nc2nccs2)cc1Cl [Example 83, 5-chloro-4-(((1R,2R,5R)-2-(dimethylamino)-5-(trifluoromethyl)cyclohexyl)amino)-2-fluoro-N-(thiazol-2-yl)benzenesulfonamide]
770		CN(C)[C@H]1CCCC[C@@H]1Nc1cc(F)c(S(=O)(=O)Nc2cscn2)cc1Cl [Example 46, 5-chloro-4-(((1S,2S)-2-(dimethylamino)cyclohexyl)amino)-2-fluoro-N-(thiazol-4-yl)benzenesulfonamide]
118		Cc1csc(NS(=O)(=O)c2cc(Cl)c(N[C@H]3CCCC[C@@H]3N3CCCC3)cc2F)n1 [Example 92, 5-chloro-2-fluoro-N-(4-methylthiazol-2-yl)-4-(((1S,2S)-2-(pyrrolidin-1-yl)cyclohexyl)amino)benzenesulfonamide formate]
199		CN(C)[C@H]1CCCC[C@@H]1Nc1ccc(S(=O)(=O)Nc2nccs2)cc1[N+](=O)[O-] [Example 28, 4-(((1S,2S)-2-(dimethylamino)cyclohexyl)amino)-3-nitro-N-(thiazol-2-yl)benzenesulfonamide]
	89.9	CN(C)[C@H]1CCCC[C@@H]1Oc1cc(F)c(S(=O)(=O)Nc2nccs2)cc1Cl [Example 7, 5-chloro-4-(((1S,2S)-2-(dimethylamino)cyclohexyl)oxy)-2-fluoro-N-(thiazol-2-yl)benzenesulfonamide]
58.4		CN[C@H]1CCCC[C@@H]1Nc1cc(F)c(S(=O)(=O)Nc2nccs2)cc1Br [Example 50, 5-bromo-2-fluoro-4-(((1S,2S)-2-(methylamino)cyclohexyl)amino)-N-(thiazol-2-yl)benzenesulfonamide formate]
60.1		CCCN(C)[C@H]1CCCC[C@@H]1Nc1cc(F)c(S(=O)(=O)Nc2nccs2)cc1Cl [Example 29, 5-chloro-2-fluoro-4-(((1S,2S)-2-(methyl(propyl)amino)cyclohexyl)amino)-N-(thiazol-2-yl)benzenesulfonamide]
1740		CN(C)[C@@H]1C[C@@H](C(F)(F)F)CC[C@H]1Nc1cc(F)c(S(=O)(=O)Nc2nccs2)cc1Cl [Example 81, 5-chloro-4-(((1R,2R,4S)-2-(dimethylamino)-4-(trifluoromethyl)cyclohexyl)amino)-2-fluoro-N-(thiazol-2-yl)benzenesulfonamide]
880		Cc1cnc(NS(=O)(=O)c2cc(Cl)c(N[C@H]3CCCC[C@@H]3N(C)C)cc2F)s1 [Example 40, 5-chloro-4-(((1S,2S)-2-(dimethylamino)cyclohexyl)amino)-2-fluoro-N-(5-methylthiazol-2-yl)benzenesulfonamide formate]
	357	CN(C)[C@H]1CCCC[C@@H]1Nc1cc(F)c(S(=O)(=O)Nc2ncns2)cc1F [Example 13, 4-(((1S,2S)-2-(dimethylamino)cyclohexyl)amino)-2,5-difluoro-N-(1,2,4-thiadiazol-5-yl)benzenesulfonamide formate]
32.2		CN(C)[C@@H]1CC[C@H](c2cccc(C(F)(F)F)c2)C[C@H]1Nc1cc(F)c(S(=O)(=O)Nc2nccs2)cc1Cl [Example 103, 5-chloro-4-(((1R,2R,5S)-2-(dimethylamino)-5-(3-(trifluoromethyl)phenyl)cyclohexyl)amino)-2-fluoro-N-(thiazol-2-yl)benzenesulfonamide]
198		O=S(=O)(Nc1ccncn1)c1cc(Cl)c(N[C@H]2CCCC[C@@H]2N2CCCC2)cc1F [Example 60, 5-chloro-2-fluoro-N-(pyrimidin-4-yl)-4-(((1S,2S)-2-(pyrrolidin-1-yl)cyclohexyl)amino)benzenesulfonamide]
	3000	CN(C)[C@H]1CCC[C@@H]1Oc1cc(F)c(S(=O)(=O)Nc2nccs2)cc1Cl [Example 9, 5-chloro-4-(((1S,2S)-2-(dimethylamino)cyclopentyl)oxy)-2-fluoro-N-(thiazol-2-yl)benzenesulfonamide]
19.7		CCN[C@H]1CCCC[C@@H]1Nc1cc(F)c(S(=O)(=O)Nc2cccc(F)n2)cc1Cl [Example 73, 5-chloro-4-(((1S,2S)-2-(ethylamino)cyclohexyl)amino)-2-fluoro-N-(6-fluoropyridin-2-yl)benzenesulfonamide]
64.7		CN(C)[C@@H]1CC[C@@H](c2cccc(C(F)(F)F)c2)C[C@H]1Nc1cc(F)c(S(=O)(=O)Nc2nccs2)cc1Cl [Example 93, 5-chloro-4-(((1R,2R,5R)-2-(dimethylamino)-5-(3-(trifluoromethyl)phenyl)cyclohexyl)amino)-2-fluoro-N-(thiazol-2-yl)benzenesulfonamide]
201		CN(C)[C@H]1CC[C@@H](c2cccc(C(F)(F)F)c2)C[C@@H]1Nc1cc(F)c(S(=O)(=O)Nc2nccs2)cc1Cl [Example 88, 5-chloro-4-(((1S,2S,5R)-2-(dimethylamino)-5-(3-(trifluoromethyl)phenyl)cyclohexyl)amino)-2-fluoro-N-(thiazol-2-yl)benzenesulfonamide]
127		CCN[C@H]1CCCC[C@@H]1Nc1cc(F)c(S(=O)(=O)Nc2ccncn2)cc1C1CC1 [Example 100, 5-cyclopropyl-4-(((1S,2S)-2-(ethylamino)cyclohexyl)amino)-2-fluoro-N-(pyrimidin-4-yl)benzenesulfonamide]
	426	O=S(=O)(Nc1nccs1)c1cc(Cl)c(N[C@H]2CCCC[C@@H]2NCc2ccccc2)cc1F [Example 5, 4-(((1S,2S)-2-(benzylamino)cyclohexyl)amino)-5-chloro-2-fluoro-N-(thiazol-2-yl)benzenesulfonamide 2,2,2-trifluoroacetate]
91.7		CN[C@H]1CCCC[C@@H]1Nc1cc(F)c(S(=O)(=O)Nc2cccc(F)n2)cc1Cl [Example 74, 5-chloro-2-fluoro-N-(6-fluoropyridin-2-yl)-4-(((1S,2S)-2-(methylamino)cyclohexyl)amino)benzenesulfonamide]
630		CCN[C@H]1CCCC[C@@H]1Oc1cc(F)c(S(=O)(=O)Nc2ccncn2)cc1C1CC1 [Example 96, 5-cyclopropyl-4-(((1S,2S)-2-(ethylamino)cyclohexyl)oxy)-2-fluoro-N-(pyrimidin-4-yl)benzenesulfonamide]
75.6		CN[C@H]1CCCC[C@@H]1Nc1cc(F)c(S(=O)(=O)Nc2nccs2)cc1C1CC1 [Example 51, 5-cyclopropyl-2-fluoro-4-(((1S,2S)-2-(methylamino)cyclohexyl)amino)-N-(thiazol-2-yl)benzenesulfonamide formate]
41.3		CCN(C)[C@H]1CCCC[C@@H]1Nc1cc(F)c(S(=O)(=O)Nc2cccc(F)n2)cc1Cl [Example 71, 5-chloro-4-(((1S,2S)-2-(ethyl(methyl)amino)cyclohexyl)amino)-2-fluoro-N-(6-fluoropyridin-2-yl)benzenesulfonamide]
3.46		O=S(=O)(Nc1nccs1)c1cc(Cl)c(N[C@H]2CCCC[C@@H]2N2CCCCC2)cc1F [Example 70, 5-chloro-2-fluoro-4-(((1S,2S)-2-(piperidin-1-yl)cyclohexyl)amino)-N-(thiazol-2-yl)benzenesulfonamide formate]

Compound	IC50 [1] [nM]	IC50 [2] [nM]
5-chloro-4-(((1 S,2S)-2-(ethylamino)cyclohexyl)amino)-2-fluoro-N-(pyrimidin-4-yl)benzenesulfonamide [Example 22]		95.1
